From US20040092595A1, “Analgesic agent” (Seiwa Pharmaceuticals, Ltd., priority 2000, published 2004)

Columns and labels:
[1] = system: mice; experiment: Analgesic, anti-inflammatory activity test (formalin test); type: in vivo; details: male ICR mice, 1.0% formalin (20 μl injected), sample 40 mg/kg intraperitoneal, 15 min before stimulation, n=10, average value±standard error; for 1st phase response (0 to 10 min), licking time: control 121.33 ± 5.32; for 2nd phase response (10 to 30 min), licking time: control 183.51 ± 20.10
Method: An analgesic, anti-inflammatory activity test (the so-called “formalin test”) was carried out using samples 1 to 9 as test drugs.
A 1.0% formalin solution (20 μl) was injected as a stimulant into the hypoderm of the planta depis in the hind leg of mice (five-week-old male ICR mice which, after purchase, had been subjected to quarantine and acclimation for one week). An act of licking the hind leg by the mice for alleviating the pain was then successively measured with a stopwatch 5 min by 5 min for 30 min. In this case, for each of the test drugs (samples 1 to 9), a suspension corresponding to a dose of 40 mg/kg was prepared using an aqueous solution of 0.5% polyoxyethylene sorbitan monooleate (Tween 80; a product of Atlas). The suspension (100 μl) for each sample was intraperitoneally administered to the mice 15 min before the stimulation. For a control group, the same volume of 0.5% Tween 80 was intraperitoneally administered to the mice.
It is generally known that the formalin test as described above causes a biphasic response, that is, the following first-phase response and second-phase response.
The first-phase response refers to a response indicated by pain in a 0 to 10 min period after the stimulation with formalin, that is, a response indicated by pain caused by direct stimulation of the sensory nerve at its end upon the injection of formalin. At the present time, only narcotic analgesics such as morphine are known to have inhibitory activity against this first-phase response. On the other hand, the second-phase response refers to a response indicated by pain in a 10 to 30 min period after the stimulation with formalin, that is, a response indicated by pain attributable to inflammation caused upon the injection of formalin. This response can be inhibited by conventional analgesics such as aspirin.
The analgesic, anti-inflammatory activity was evaluated in two separate phases, a phase from 0 min to 10 min after the administration and a phase from 10 min to 30 min after the administration. For each of the phases, the total number of seconds for which the mouse licked the hind leg (licking time) was calculated, and this value was compared with the value for the control.

[2] = system: rats; experiment: Acute gastric ulcer test; type: in vivo
Method: An acute gastric ulcer test was carried out using sample 2 and indometacin as test drugs. […] By contrast, for sample 2, the same test was carried out, except that, instead of indometacin, sample 2 was orally administered at a dose of 10 to 300 mg/kg.

Structure (SMILES)	1st phase response (0 to 10 min), licking time [1] [s]	2nd phase response (10 to 30 min), licking time [1] [s]	occurrence of a gastric ulcer ([2]; orally administered at a dose of 10 to 300 mg/kg, same test as for indometacin)	occurrence of a gastric ulcer ([2]; orally administered at a dose of not less than 50 mg/kg, seven hr after the administration)
COC(=O)C1C(c2ccc(O)cc2)C(C(=O)OC)C1c1ccc(O)cc1 (stereo not drawn) [Sample 8, dimethyl 4,4′-dihydroxy-α-truxillate]	89.65 ± 4.67	122.70 ± 7.16		
O=C(O)C1C(c2ccc(O)cc2)C(C(=O)O)C1c1ccc(O)cc1 (stereo not drawn) [Sample 2, 4,4′-dihydroxy-α-truxillic acid]	102.34 ± 4.09	7.12 ± 3.29	an ulcer did not occur at all	
O=C(O)C1C(C(=O)O)C(c2ccccc2)C1c1ccccc1 (stereo not drawn) [Sample 4, β-truxinic acid]	59.40 ± 7.19	74.75 ± 11.94		
COc1ccc2c(c1)c(CC(=O)O)c(C)n2C(=O)c1ccc(Cl)cc1 [indometacin, reference compound]				the occurrence of a gastric ulcer was clearly learned
O=C(O)C1C(C(=O)O)C(c2ccc(Cl)cc2)C1c1ccc(Cl)cc1 (stereo not drawn) [Sample 6, 4,4′-dichloro-β-truxinic acid]	59.37 ± 6.04	34.44 ± 9.13		
